Experimental findings from patent publication US9814761B2, “Compositions, methods and assays comprising amylin or amlyin analogs for abeta-peptide mediated disorders” (TRUSTEES OF BOSTON UNIVERSITY, priority 2012, dated 2017) are described below.

Entries after “also recorded” stand apart in the source; their conditions may differ.

Data set [1] concerns the target T1, IDE (insulin degrading enzyme) (Mus musculus, UniProt Q9JHR7).
T1 construct: endogenous in cells; host or cells: Tg2576 (APP transgenic) mice, whole animal, i.p. dosing
T1 sequence (Q9JHR7 1-1019): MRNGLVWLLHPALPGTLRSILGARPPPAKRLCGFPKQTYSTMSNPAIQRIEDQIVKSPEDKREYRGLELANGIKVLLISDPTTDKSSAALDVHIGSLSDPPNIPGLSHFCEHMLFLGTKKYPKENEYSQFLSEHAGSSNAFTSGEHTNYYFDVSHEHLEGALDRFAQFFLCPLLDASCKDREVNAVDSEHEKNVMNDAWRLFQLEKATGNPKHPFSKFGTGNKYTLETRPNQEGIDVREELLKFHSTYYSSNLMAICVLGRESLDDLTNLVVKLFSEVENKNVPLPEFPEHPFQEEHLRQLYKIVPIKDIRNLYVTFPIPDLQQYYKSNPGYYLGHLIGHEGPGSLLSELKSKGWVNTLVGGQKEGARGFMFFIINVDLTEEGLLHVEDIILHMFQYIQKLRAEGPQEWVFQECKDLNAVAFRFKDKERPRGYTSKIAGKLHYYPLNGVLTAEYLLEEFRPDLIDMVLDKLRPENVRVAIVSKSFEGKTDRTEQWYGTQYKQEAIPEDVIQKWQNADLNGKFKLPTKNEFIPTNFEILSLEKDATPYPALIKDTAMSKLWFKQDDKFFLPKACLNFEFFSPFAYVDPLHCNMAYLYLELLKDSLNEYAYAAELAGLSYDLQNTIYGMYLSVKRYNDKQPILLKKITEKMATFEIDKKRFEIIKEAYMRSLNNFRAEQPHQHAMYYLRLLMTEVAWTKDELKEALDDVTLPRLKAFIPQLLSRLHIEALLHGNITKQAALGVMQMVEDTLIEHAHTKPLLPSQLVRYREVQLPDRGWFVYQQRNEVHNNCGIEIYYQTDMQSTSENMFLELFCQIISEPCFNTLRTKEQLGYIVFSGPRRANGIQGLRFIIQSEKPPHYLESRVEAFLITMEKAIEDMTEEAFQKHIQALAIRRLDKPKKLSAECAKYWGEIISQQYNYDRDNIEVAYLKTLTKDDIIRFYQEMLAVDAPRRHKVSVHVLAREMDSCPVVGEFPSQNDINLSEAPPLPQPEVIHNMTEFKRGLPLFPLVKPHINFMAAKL
Kind of data set: pre-treatment with IDE inhibitor followed by amylin challenge, serum Aβ. Format: in vivo. As to conditions: Tg2576 mice pre-treated with 1-10 phenonthrolin, then amylin challenge. Here is the method: Tg2576 mice were used for the amylin challenge test. The mice received blood draws before any treatment. Then the mice had intraperitoneally injection (i.p) of PBS, AC253 (amylin receptor antagonist) or 1,10-phenonthrolin (IDE inhibitor) and received another blood draw 24 hrs post the treatment followed by i.p amylin (20 mg/kg). The final blood draw was conducted after 24 hrs post i.p amylin. Serum Aβ1-40 (5A) and Aβ1-42 (5B) were measured by using the ELISA assays. The levels of serum Aβ1-40 and Aβ1-42 at pre-injection of amylin were treated as 1 s, and the relative fold increases with different treatments were calculated and compared with the pre-injection level by using two-way ANOVA. P values for statistical significance are shown.
As amylin and Aβ are degraded by the same protease, IDE, we next pre-treated the Tg2576 mice with 1-10 phenonthrolin, a metalloprotease inhibitor to inhibit the activity of IDE, followed by the amylin challenge. It was next tested whether CTR/RAMP3 and IDE form a complex in this process to regulate Aβ in the brain. […] Another experiment with IDE immunoprecipitation and then RAMP3 western blot also illustrated the complex.

The subject of a further data set is mouse models. Kind of data set: daily dosing in mouse models, memory functions. Format: in vivo, mice.
Another data set deals with plasma Aβ1-40 and Aβ1-42. The experiment in a line: pramlintide challenge in two human subjects, plasma Aβ1-40 and Aβ1-42. Format: in vivo. As to conditions: pramlintide 60 mcg s.c. As to the method:
(§1) Subcutaneous injections of one dose of pramlintide (60 mcg) was performed in two subjects followed in the research registry of the BU ADC, one control and one probable Alzheimer's disease. Blood was drawn to collect plasma samples before the injection and at 5, 30, 60 and 180 minutes after the injection. Vital signs and blood glucose were monitored at these time points and prior to discharge of the subject from the facility. One hour after the injection, the subjects were offered a standard meal. Plasma Aβ1-40 and Aβ1-42 were measured (Table 2). […] The human results provided herein are encouraging, in part, because the dose of pramlintide (60 mcg) used was only moderate.

A short description of data set [2]: blood (stick) glucose monitored after pramlintide injection in two human subjects. Format: in vivo. As to conditions: pramlintide 60 mcg s.c. As to the method:
as §1

For the compound `c1cnc2c(c1)ccc1cccnc12` [1-10 phenonthrolin, 1,10-phenonthrolin], in data set [1], the “surges of serum Aβ at 24 hrs post the peripheral injection of amylin” value was “completely blocked”.
Consider `CC[C@H](C)[C@H](NC(=O)[C@@H]1CCCN1C(=O)CNC(=O)[C@H](Cc1ccccc1)NC(=O)[C@H](CC(N)=O)NC(=O)[C@H](CC(N)=O)NC(=O)[C@H](CO)NC(=O)[C@H](CO)NC(=O)[C@H](Cc1c[nH]cn1)NC(=O)[C@@H](NC(=O)[C@H](CC(C)C)NC(=O)[C@H](Cc1ccccc1)NC(=O)[C@H](CC(N)=O)NC(=O)[C@H](C)NC(=O)[C@H](CC(C)C)NC(=O)[C@H](CCCNC(=N)N)NC(=O)[C@H](CCC(N)=O)NC(=O)[C@@H](NC(=O)[C@H](C)NC(=O)[C@@H]1CSSC[C@H](NC(=O)[C@@H](N)CCCCN)C(=O)N[C@@H](CC(N)=O)C(=O)N[C@@H]([C@@H](C)O)C(=O)N[C@@H](C)C(=O)N[C@@H]([C@@H](C)O)C(=O)N1)[C@@H](C)O)C(C)C)C(=O)N[C@@H](CC(C)C)C(=O)N1CCC[C@H]1C(=O)N1CCC[C@H]1C(=O)N[C@H](C(=O)N[C@@H](CC(N)=O)C(=O)N[C@H](C(=O)NCC(=O)N[C@@H](CO)C(=O)N[C@@H](CC(N)=O)C(=O)N[C@H](C(=O)N[C@@H](Cc1ccc(O)cc1)C(N)=O)[C@@H](C)O)C(C)C)[C@@H](C)O` [pramlintide], for which, in the data set on mouse models, the “memory functions / cognition” value is recorded as “increased memory functions; also recorded: led to cognitive improvements”. In addition, the “plasma Aβ1-42” value turned out to be 29.0 pg/mL with plasma Aβ1-40 and Aβ1-42 (AD subject, post 5', pre-injection 27.0); 31.8 pg/mL in the data set with plasma Aβ1-40 and Aβ1-42 (AD subject, post 30', pre-injection 27.0); 26.6 pg/mL in the data set on plasma Aβ1-40 and Aβ1-42 (AD subject, post 60', pre-injection 27.0); 22.0 pg/mL in the data set with plasma Aβ1-40 and Aβ1-42 (AD subject, post 180', pre-injection 27.0); 26.0 pg/mL in the data set with plasma Aβ1-40 and Aβ1-42 (control subject, post 5', pre-injection 29.9); 27.5 pg/mL in the data set with plasma Aβ1-40 and Aβ1-42 (control subject, post 30', pre-injection 29.9). For the same compound, the “plasma Aβ1-42” value with plasma Aβ1-40 and Aβ1-42 (control subject, post 60', pre-injection 29.9) came to 21.7 pg/mL; in the data set with plasma Aβ1-40 and Aβ1-42 (control subject, post 180', pre-injection 29.9), 10.6 pg/mL. Also, the “plasma Aβ1-40” value in the data set with plasma Aβ1-40 and Aβ1-42 (AD subject, post 5', pre-injection 180.6) worked out at 160.8 pg/mL; in the data set with plasma Aβ1-40 and Aβ1-42 (AD subject, post 30', pre-injection 180.6) it was 161.0 pg/mL; in the data set on plasma Aβ1-40 and Aβ1-42 (AD subject, post 60', pre-injection 180.6), 129.4 pg/mL; in the data set with plasma Aβ1-40 and Aβ1-42 (AD subject, post 180', pre-injection 180.6) it was 104.6 pg/mL; in the data set on plasma Aβ1-40 and Aβ1-42 (control subject, post 5', pre-injection 148.4) it was 178.4 pg/mL; in the data set on plasma Aβ1-40 and Aβ1-42 (control subject, post 30', pre-injection 148.4) it was 150.4 pg/mL. In addition, the “plasma Aβ1-40” value amounted to 110.5 pg/mL in the data set on plasma Aβ1-40 and Aβ1-42 (control subject, post 60', pre-injection 148.4); 100.8 pg/mL in the data set with plasma Aβ1-40 and Aβ1-42 (control subject, post 180', pre-injection 148.4). Moreover, the Glucose in data set [2] (AD subject, post 5', pre-injection 85) came out at 91 mg/dL; in data set [2] (AD subject, post 30', pre-injection 85) it was 88 mg/dL; in data set [2] (AD subject, post 60', pre-injection 85, standard meal offered one hour after injection), 135 mg/dL; in data set [2] (AD subject, post 180', pre-injection 85, standard meal offered one hour after injection), 115 mg/dL; in data set [2] (control subject, post 5', pre-injection 115), 108 mg/dL; in data set [2] (control subject, post 30', pre-injection 115) it was 115 mg/dL. The Glucose in data set [2] (control subject, post 60', pre-injection 115, standard meal offered one hour after injection) was 114 mg/dL; in data set [2] (control subject, post 180', pre-injection 115, standard meal offered one hour after injection), 149 mg/dL.
